Measured values reported in a melting point compilation (Tetko et al.; mined from patent text by program, amines drawn as free bases though some values may be those of a salt).

melting point [°C] | SMILES
> 250 | CC(C)n1nc(-c2sc(N)nc2-c2ccccc2)ccc1=O
109 to 110 | O=[N+]([O-])c1ccccc1-c1ccc(CBr)cc1
> 280 | O=[N+]([O-])c1ccc2[nH]c(/C=C/c3ccncc3)nc2c1
130 to 131 | CCOC(=O)c1c(NCCC(=O)c2ccccc2)c2c(Cl)cc(Cl)cc2n1C(=O)OC(C)(C)C
158 to 159 | CC(C)(C)c1nc(C(=O)c2cccs2)nc(C(C)(C)C)c1O
191 to 195 | CC(C)n1cc(C(=O)NCc2ccc(Cl)cc2)c(=O)c2cc(CN3CCOCC3)sc21
132 to 134 | COC(=O)c1cc(Cl)cc(C(=O)OC)n1
134 to 137 | COc1ccc2c(c1)c(C)cn2CCCCCC(=O)O
202 to 206 | CCOc1ccc(Nc2c([N+](=O)[O-])cc([N+](=O)[O-])c(Cl)c2C(=O)O)cc1
131 to 133 | NS(=O)(=O)c1ccccc1C1=NOCCO1
> 250 | Cc1cc(=O)c(-c2ccc(F)cc2)c(C)[nH]1
201 to 202 | COc1ccc(C(=O)NNC(=O)c2ccccc2)cc1
235 to 237 | COC(=O)c1ccc2[nH]c(=O)n(Cc3ccc(OC)cc3)c(=O)c2c1
> 300 | Cc1nc2[nH]c(=O)[nH]c2cc1-c1ccc([N+](=O)[O-])cc1
60 to 62 | CC(C)Sc1c(C(N)=O)n(C)c2ccc(O)cc12
249 to 250 | CC(=O)Nc1cccc(-c2cnc3[nH]cc(C(=O)C(C)(C)C)c3n2)c1
91 to 92 | COC(=O)c1nc(O)ccc1OCc1ccccc1
263 to 266 | Cn1c(=O)c(-c2ccc(Cl)cc2Cl)cc2c3cc(-c4nc(NS(C)(=O)=O)no4)ccc3n(C)c21
330 | O=S1(=O)c2ccccc2Nc2c1c(O)c(O)c1ccccc21
134 | Cc1nc2sccn2c(=O)c1CCN1CCC(n2ccc3ccccc32)CC1
260 to 263 | COc1cc2cc(CO)nc(-c3ccc([N+](=O)[O-])cc3)c2cc1OC
192 to 194 | NS(=O)(=O)c1cc2cc(O)ccc2s1
94 to 96 | CCOC(=O)c1c2ccc(Cl)cc2c(-c2ccccc2)n1CCCO

melting point [°C] | SMILES
108 | Cc1cc2c(-c3cccc(C(F)(F)F)c3)nc(Cl)nc2s1
203 to 205 | CS(=O)(=O)c1ccc(-n2nc(C(F)(F)F)cc2-c2ccc([N+](=O)[O-])cc2)cc1
127 to 129 | COC(=O)c1c(-c2cccc([N+](=O)[O-])c2)cc(-c2ccccc2)nc1C
124 to 125 | COC(=O)Cc1cccc2c1Sc1ccccc1S2
136 to 138 | COc1ccc2cccc(C(CO)CNC(C)=O)c2c1 (stereo not drawn)
121 to 122 | O=S(=O)(c1ccccc1)n1c(Sc2cc(Cl)cc(Cl)c2)cc2cc(Cl)ccc21
106 | CCC(=O)C1c2cccc(O)c2C(=O)c2c(OC(C)=O)cccc21 (stereo not drawn)
95 to 100 | CC(=O)OCc1c(CNC(=O)c2ccc(C(=O)O)cc2)ccc2c1C(C)(C)CCC2(C)C
88 to 89 | CCCCc1nc(Cl)c(C=O)n1Cc1ccc([N+](=O)[O-])cc1
198 to 202 | CCOC(=O)c1cn(-c2nc(N)c(F)cc2C)c2c(Cl)c(F)c(F)cc2c1=O
164 | Nc1ccc2ccc(OCCN3CCOCC3)nc2n1
61 to 62 | CCOC(=O)CCc1ccc(CCNS(=O)(=O)c2ccc(Cl)cc2)cc1
231 | O=C(NC(=O)c1c(F)cccc1F)Nc1cc(F)c(C(F)(F)F)c(F)c1
> 220 | O=S1(=O)N=C(NOCc2ccccc2)Nc2ccc(Cl)cc21
109 to 111 | COc1ccc(Nc2ccccc2)c(NS(C)(=O)=O)c1
118 to 120 | Cc1cc(CO)nc(Nc2ccccc2)n1
111 to 113 | NS(=O)(=O)c1ccc([C@H]2[C@H](C(=O)Nc3ccc(C(F)(F)F)cc3Cl)C23CCCC3)cc1 (relative stereo)
160 to 161 | COc1cc(N)ccc1NC(=O)c1ccc(N)cc1
146 to 147 | COc1ccc2ccc(CC3=NOS(=O)N3)cc2c1 (stereo not drawn)
148 | CN(C)C(=O)Nc1coc2ccccc2c1=O
248 | N/C(=C1\C(=O)c2cc(Cl)ccc2S1=O)c1ccccc1Cl (stereo not drawn)
178 to 179 | Cc1nc(N2CCN(Cc3ccc(Cl)cc3)C2=O)sc1C(=O)NCc1cccnc1

Second part, the compound before the results:

SMILES | melting point [°C]
CCCCCCCCCCCCCCOc1ccc(C(=O)OC)cc1C(C)(C)C | 44 to 45
O=c1ccn2c(n1)CN=C(c1ccccc1)c1cc(Cl)ccc1-2 | 208 to 209
CC(C)OC(=O)NC1(c2ccccc2Cl)CCCCC1=O (stereo not drawn) | 124 to 126
CCCOCc1cc(OC)c(-c2ccc(C[C@H](NC(=O)c3c(Cl)cccc3Cl)C(=O)O)cc2)c(OC)c1 | 183 to 186
CC(=O)c1c(C)c2cnc(Nc3ccc(N4CCNCC4)nc3)nc2n(C2CCCC2)c1=O | 125
NC(=O)NC1CCC(Cl)CC1 (stereo not drawn) | 177 to 178
CCCCCCCCCCCCCCCCOc1ccc(C(=O)O)o1 | 118 to 119
CN1C2CCCC1CC(NC(=O)c1cccc3nc(-c4ccccc4)oc13)C2 (stereo not drawn) | 208 to 210
Cc1cc(SCc2ccc(-c3ccccc3)cc2)ccc1OCC(=O)O | 138
Cc1c(C2=NC(C)(C)CO2)cccc1[N+](=O)[O-] | 60 to 61
CCCc1c(OCC2COc3cc(CC(=O)OC)ccc3O2)ccc(C(C)=O)c1O (stereo not drawn) | 72 to 75
Cc1cn(-c2cc3nc(NN)c(=O)n(OCc4ccccc4)c3cc2C(F)(F)F)c(-c2ccccc2)n1 | 127 to 130
CCCc1c(C(=O)N2CCOCC2)c2ccc(C(N)=O)cc2n1Cc1ccccc1Cl | 229 to 230
COc1ccc(C)cc1NC(=O)Nc1ccc(N2CCN(C(=O)Nc3ccc(OCCO)cc3C(F)(F)F)CC2)c(C)c1 | 225 to 228
CN1CC2Cc3ccc(Cl)cc3C(O)C2C1 (stereo not drawn) | 178 to 182
CS(=O)(=O)c1ccc(-c2cnn(CC(=O)c3ccccc3)c(=O)c2-c2ccc(F)cc2)cc1 | 228 to 230
CCCCc1oc2ccccc2c1C(=O)c1ccc2c(Br)c(OC(Cc3ccccc3)C(=O)O)ccc2c1 (stereo not drawn) | 165 to 167
CNC(=S)C1(c2cccnc2)CCCCCC1=O (stereo not drawn) | 144 to 146
Oc1c(C(Nc2ccc(F)cn2)c2ccccn2)ccc2cccnc12 (stereo not drawn) | 165 to 168
O=C(N[C@@H](Cc1ccccc1)C[C@H](O)[C@H](Cc1ccccc1)NC(=O)OCc1nccs1)OCc1nccs1 | 66 to 69
Cc1nn(CC(F)(F)COC(=O)CN(C)C)c(-c2ccc(F)cc2)c1-c1ccc2c(c1)NC(=O)CO2 | 153 to 155
Cc1cc2c(c3c1NC(=O)C(C)(C)C3)OC(C)(CN=[N+]=[N-])C2 (stereo not drawn) | 169 to 170
Cc1cc(OCc2oc(-c3ccc(C(F)(F)F)cc3)nc2C)ccc1/C=C/C(=O)O | 155 to 165
CCOC(=O)C(=CN)C(=O)c1cc(F)c(F)c(F)c1F | 118 to 119
CCCCCCCCOc1ccc(C(=O)Oc2ccc(-c3ccc(OC(=O)[C@H]4CCCO4)cc3)cc2)cc1 | 73
CCCCC[C@@H](CNC(=O)Nc1c(OC(C)C)c(C)nn1-c1ccccc1)c1cccc2c1OCO2 | 126
CCCOc1cc(CCC(=O)O)ccc1OCCCc1cn(-c2ccc(C(F)(F)F)cn2)nc1OCC | 106 to 107

SMILES | melting point [°C]
O=C1C(=Cc2ccco2)CCc2cc(OCCc3c[nH]cn3)ccc21 | 57 to 60
NOP(=O)(c1ccccc1)c1ccccc1 | 104
CC(C)(C)NC(=O)c1nn(-c2ccccc2)c2c1C1CCC2C1 (stereo not drawn) | 101 to 103
C#CC(O)COc1ccc(F)cc1 (stereo not drawn) | 46 to 47
COc1cc(Cc2cnc(N)nc2N)c2c(c1OC)OC(C)CC2 (stereo not drawn) | 239 to 240
CN(C(=O)c1ccc(Cl)cc1)c1ccccc1CCCC(=O)O | 123
COc1cc2nccc(N3CCN(C(=O)Nc4ccc(Oc5ccccc5)cc4)CC3)c2cc1OC | 204 to 206
CCOC(=O)C1CN2c3c(c(F)c(F)c(F)c3C1=O)CCN2C (stereo not drawn) | 236 to 240
O=C(CCCCCCOc1ccc(OCc2ccccc2)cc1)c1nnc(COCc2ccccc2)o1 | 95 to 97
CCOC(=O)c1csc(NC(=O)C(CC2CCCC2)c2ccc(NC(=O)c3cccnc3)cc2)n1 (stereo not drawn) | 222 to 223
CC(C)C(NC(=O)OCCN1CCOCC1)C(=O)NC(Cc1ccccc1)C(O)C(Cc1ccccc1)NC(=O)C(NC(=O)OCc1ccccc1)C(C)C (stereo not drawn) | 159 to 161
CN1CCN(C2=Cc3cc(Cl)ccc3C(=CC#N)c3ccccc32)CC1 | 196 to 198
CCOC(=O)C(CC(=O)O)(C(=O)OCC)n1cccc1 | 93 to 94
O=S(CC(O)CCl)c1ncc(Cl)cn1 (stereo not drawn) | 170
COC(=O)CC=CC=CC=CC=CC=Cc1ccsc1 | 206 to 208
COc1ccc(/C=C(\C#N)c2cccnc2)cc1OC1CCCC1 | 86.5 to 87.5
CN1CCN(c2c(F)cc3c(=O)c(C(=O)O)cn(C4CSC4)c3c2F)CC1 | 204 to 206
O=c1[nH]c2ccc(C=C3c4ccc(F)cc4CCc4cc(F)ccc43)cc2[nH]1 | 257
O=C(CN1CCC(Cc2ccccc2)CC1)Nc1ccc2[nH]c(=S)oc2c1 | 183 to 184
COC1=CC(OC)(OC)CC=C1C(=O)OCC(=O)c1ccccc1 | 97 to 98
NC(=O)c1cc(NC(=O)c2ccccc2)ccc1SSc1ccc(NC(=O)c2ccccc2)cc1C(N)=O | 273 to 274
CC(C1CC1)N1C(=O)c2cc([N+](=O)[O-])cnc2C1=O (stereo not drawn) | 96 to 99
O=C1C(=O)N(CCCN2CCN(C3c4ccccc4CCc4ccccc43)CC2)c2ccccc21 | 159 to 162
CC(C)(C)OC(=O)NC1Cc2ccccc2C(F)C1O (stereo not drawn) | 98 to 99
S=C(NCCCN1CCN(Cc2ccc(Cl)cc2)CC1)NC1CCCCC1 | 127 to 128
CCCCCCCCCCCCCCCCCCn1c(C)c(CC(=O)NN)c2cc(OC)ccc21 | 121 to 123
